Activity calls are given as the source filed them.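 Rule for the calls: active = chemicals shown by follow-up kinetic tests to compete for rat estrogen receptor sites, with a measured inhibition constant; inconclusive = some binding seen but constant unmeasurable owing to poor solubility; inactive = no binding up to top dose, or binding unconfirmed.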
Biological target: Estrogen receptor (Rattus norvegicus) (UniProt P06211)
Test: DSSTox (KIERBL) EPA Estrogen Receptor Ki Binding Study (Laws et al.) Database
Conditions: Rat uterine cytosol ER, 3H-estradiol competitive binding
Procedure: This study was conducted by EPA researchers to evaluate the validity of the rat uterine cytosolic (RUC) estrogen receptor (ER) competitive binding assay for use in the Endocrine Disruption Screening Program (EDSP). The assay measures the ability of radiolabeled 17-beta-estradiol (3H-E2) to bind with RUC ER in the presence of increasing concentrations of a test chemical. The goal is to employ this in vitro assay as a 1st tier screening tool for assessing the potential of structurally diverse environmental chemicals to bind to the ER, as well as to support research efforts to develop computational models to predict ER binding. A distinguishing feature of the present study was the use of secondary experimental analysis of binding curves and determination of Ki values to confirm that measured IC50 values corresponded to true positive results. The study concluded that a number of experimental conditions can confound interpretation of IC50 values obtained from the RUC ER-binding assay data and lead to false positive results. In particular, some chemical treatments likely alter the stability of the assay by changing the buffer pH, denaturing ER, or disrupting the ER binding kinetics. […] The chemicals used in this study were selected as part of a validation test for two Quantitative Structure-Activity Relationship (QSAR) models designed to predict ER binding [Fed. Reg. 67(250), 79618, Dec. 30, 2002]. Several hundred chemicals were initially screened, including approximately 100 chemicals selected from among the High Production Volume (HPV) chemicals included in EPA's Toxic Substances Control Act (TSCA) inventory that were predicted to be positive for ER binding, with the rest selected at random from the TSCA inventory. All chemicals were initially tested in ER competitive binding assays by Battelle Pacific Northwest Laboratories, Richland, Washington [EPA Contract Number 68-W-99-033, Task 6]. Approximately 50 chemicals produced binding curves that: (1) strongly implied competitive inhibition of ER binding, or (2) produced partial curves or irregular (non-sigmoid) binding curves. These chemicals were further evaluated in an ER competitive binding assay with secondary analysis to confirm true competitive inhibition and to determine an experimental Ki [U.S. EPA Contract 3D-5967-NTEX]. The results of RUC ER screening for these 50 structurally diverse chemicals, for which secondary confirmatory analyses were performed, were published in the Main Citation (Laws et al., 2006, Tox. Sci. 94:46-56). The remaining 228 chemicals were designated as non-binders based on initial screening studies.
The DSSTox KIERBL data files include all published IC50 and Ki experimental results for the 50 chemicals included in the Main Citation (Laws et al., 2006) (denoted Group 1), as well as previously unpublished results for an additional 228 structually diverse TSCA chemicals for which no ER binding was observed (denoted Group 2. IC50 values were determined for 32 compounds in Group 1 as the concentration of a test chemical that inhibits the maximal specific binding of 0.33 nM radiolabeled (3H) 17-beta-estradiol (E2) to rat uterine cytosolic (RUC) estrogen receptor (ER) by 50%. Confirmation of binding status was accomplished by secondary analysis using Lineweaver-Burk plots and slope replots to determine true competitive inhibition and an experimental Ki value. Ki is the inhibition constant for the test chemical, i.e., the concentration of the test chemical that will bind to half the binding sites at equilibrium (displacing half of the probe-bound receptors), in the absence of radioligand or other competitors. Ki reported as Mean +/- Standard Error from n=2 experiments (see StandardError_Ki_n2) and is determined from Lineweaver-Burk plots over the tested dose range (TestedRange_microM). For more information see BindingCurve_Group and BindingCurve_Details. […]

Sequence of Estrogen receptor (Rattus norvegicus) (P06211 whole entry, looked up): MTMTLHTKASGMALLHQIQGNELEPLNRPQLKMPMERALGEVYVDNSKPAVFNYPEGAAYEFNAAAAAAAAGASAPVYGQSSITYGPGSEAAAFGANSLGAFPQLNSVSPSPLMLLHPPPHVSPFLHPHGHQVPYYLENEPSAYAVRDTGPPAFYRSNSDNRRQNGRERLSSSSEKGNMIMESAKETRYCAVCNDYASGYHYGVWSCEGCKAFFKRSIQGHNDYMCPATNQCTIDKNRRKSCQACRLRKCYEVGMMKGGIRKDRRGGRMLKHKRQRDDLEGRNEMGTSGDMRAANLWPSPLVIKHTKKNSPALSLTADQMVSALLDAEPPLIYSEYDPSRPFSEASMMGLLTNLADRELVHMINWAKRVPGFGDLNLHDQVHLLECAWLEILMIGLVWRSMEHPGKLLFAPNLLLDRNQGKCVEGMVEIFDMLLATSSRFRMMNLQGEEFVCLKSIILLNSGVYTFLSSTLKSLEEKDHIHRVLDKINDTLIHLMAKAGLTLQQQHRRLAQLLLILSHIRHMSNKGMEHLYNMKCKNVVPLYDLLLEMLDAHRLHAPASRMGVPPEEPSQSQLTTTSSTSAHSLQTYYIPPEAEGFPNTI

CCCCCCCCCCCCCCCCCC[N+](C)(C)CCC[Si](OC)(OC)OC
outcome (TestedRange_microM: 0.5-10): inactive; irregular

C=C(C)C(=O)OCCOCC
outcome: inactive; none

O=S(=O)(O)c1ccc(N=Nc2c(O)ccc3ccccc23)cc1
outcome: inactive; none

CCCCCCCCCCCCCCCCCC[N+](C)(C)C
outcome (TestedRange_microM: 10-100): inactive; irregular

COC(OC)(C(=O)c1ccccc1)c1ccccc1
Potency (TestedRange_microM: 10-100): 136 µM

CCCCCCCC[Si](Cl)(Cl)Cl
outcome: inactive; none

OC1CCCCC1
outcome: inactive; none

CCCCCCCCCCCCCCCCCCN
outcome: inactive; none

COc1ccc(C=O)cc1OC
outcome: inactive; incomplete

C=CC(=O)OCCC(C)OC(=O)C=C (stereo not drawn)
outcome: inactive; none

O=C1c2ccccc2C(=O)N1SC1CCCCC1
outcome: inactive; none

CC1=CC(=C(c2ccc(N)cc2)c2ccc(N)cc2)C=CC1=N
outcome: inactive; none

COC(=O)c1cccc(C)c1S(=O)(=O)NC(=O)Nc1nc(OCC(F)(F)F)nc(N(C)C)n1
outcome: inactive; none

CC(C)CC(=O)O
outcome: inactive; none

CCCCCCCC=O
outcome: inactive; irregular

CCCCCCCCCCCCCCCCCCCCCCCCO
outcome: inactive; none

CCCCCCCCOc1ccc(C(=O)c2ccccc2)c(O)c1
outcome: inactive; none

CCO[Si](CCCN=C=O)(OCC)OCC
outcome: inactive; none

O=Cc1ccccc1[N+](=O)[O-]
outcome: inactive; none

O=C(O)CC(O)(CC(=O)O)C(=O)O
outcome: inactive; none

CCCCCCOc1ccccc1C(=O)O
outcome: inactive; none

CCN(CC)c1ccc(N)c(C)c1
outcome: inactive; none

ClCC1OCCO1
outcome: inactive; none

COc1cc(S(=O)(=O)O)c(C)cc1N=Nc1c(O)ccc2cc(S(=O)(=O)O)ccc12
outcome: inactive; none

O=S(=O)(c1ccc(O)cc1)c1ccc(O)cc1
Potency (TestedRange_microM: 10-100): 82.4 µM

C(CCOCC1CO1)COCC1CO1 (stereo not drawn)
outcome: inactive; none

C=CC(=O)OCCOCCOC(=O)C=C
outcome: inactive; none

CCCCCCCC(=O)OCC(COC(=O)CCCCCCC)OC(=O)CCCCCCC
outcome: inactive; none

CC(C)CCCCCCc1ccc(O)cc1
Potency (TestedRange_microM: 0.6-1.2): 0.6 µM

CCN(CC)c1ccc(C(=C2C=CC(=[N+](CC)CC)C=C2)c2ccc(N(CC)CC)cc2)cc1
outcome: inactive; none

CCOc1ccc(NC(C)=O)cc1
outcome: inactive; none

O=C=NCCCCCCN=C=O
outcome: inactive; none

N#Cc1cc([N+](=O)[O-])ccc1N
outcome: inactive; none

CN(C)Cc1cc(CN(C)C)c(O)c(CN(C)C)c1
outcome: inactive; none

CCN(CCO)c1ccc(N=Nc2ccc([N+](=O)[O-])cc2Cl)cc1
outcome: inactive; none

O=C1CCC(=O)O1
outcome: inactive; none

CC(CO)c1ccccc1 (stereo not drawn)
outcome: inactive; incomplete

CCSC(C)CC1CC(=O)C(/C(CC)=N/OC/C=C/Cl)=C(O)C1 (stereo not drawn)
outcome: inactive; none

Nc1c(N=Nc2ccc([N+](=O)[O-])cc2)c(S(=O)(=O)O)cc2cc(S(=O)(=O)O)c(N=Nc3ccccc3)c(O)c12
outcome: inactive; none

O=P(O)(O)CCCl
outcome: inactive; none

Cc1cscn1
outcome: inactive; none

Nc1ccc(F)c(Cl)c1
outcome: inactive; none

O=C(Oc1ccccc1)c1ccccc1O
outcome: inactive; incomplete

Cc1c(C)c2c(c(C)c1O)CC[C@@](C)(CCC[C@H](C)CCC[C@H](C)CCCC(C)C)O2
outcome: inactive; none

COC(=O)C(C)O (stereo not drawn)
outcome: inactive; none

Oc1ccc2ccccc2c1N=Nc1ccccc1
outcome: inactive; none

O=C1OS(=O)(=O)c2ccccc21
outcome: inactive; none

COc1ccc(C(=O)c2ccc(OC)cc2O)c(O)c1
outcome: inactive; none

CCCCCCCCCCCCCCBr
outcome: inactive; none

CCSC(=O)N(CC)C1CCCCC1
outcome: inactive; none

CC1CCCCN1CCCOC(=O)c1ccc(Cl)c(Cl)c1 (stereo not drawn)
outcome: inactive; none

CCCCS
outcome: inactive; none

COc1nc(C)nc(NC(=O)NS(=O)(=O)c2ccccc2Cl)n1
outcome: inactive; none

Nc1ccc(/C=C/c2ccc(N)cc2S(=O)(=O)O)c(S(=O)(=O)O)c1
outcome: inactive; none

CCOC(=O)c1ccccc1C(=O)OCC
outcome: inactive; none

CC(C)C(=O)C(C)C
outcome: inactive; none

O=C(Nc1ccccc1)c1cc(Cl)ccc1O
outcome: inactive; incomplete

O=C(O)c1cc(O)c2ccccc2c1O
outcome: inactive; incomplete

COCCOC(=O)CC#N
outcome: inactive; none

CC(C)(C)c1cc(C(C)(C)c2ccc(O)c(C(C)(C)C)c2)ccc1O
outcome: inactive; incomplete

CCCCCCC(=O)O
outcome: inactive; none

CCCCNCCCCCCNCCCC
outcome: inactive; none

N#CCc1ccccc1
outcome: inactive; none

CC(C)(C)CC(C)(C)c1ccc(O)c(-n2nc3ccccc3n2)c1
outcome: inactive; none

C=CC(=O)OCC(C)O (stereo not drawn)
outcome: inactive; none

O=CCCl
outcome: inactive; none

CCCCCCCCCC#N
outcome: inactive; none

OCC1CC2C=CC1C2 (stereo not drawn)
outcome: inactive; none

CCOC(=O)C(CC)C(=O)OCC
outcome: inactive; none

Cc1ccc2n[nH]nc2c1
outcome: inactive; none

O=C(Nc1ccc(Cl)cc1)Nc1ccc(Cl)c(Cl)c1
outcome: inactive; none

CCCCCCOC(=O)c1ccccc1C(=O)OCCCCCC
outcome: inactive; none

CC1COc2ccccc2N1C(=O)C(Cl)Cl (stereo not drawn)
outcome: inactive; none

O=C(O[C@@H](C(=O)O)[C@@H](OC(=O)c1ccccc1)C(=O)O)c1ccccc1
outcome: inactive; none

O=C(Nc1ccc(Cl)c(Cl)c1)Nc1cc(Cl)ccc1Oc1ccc(Cl)cc1S(=O)(=O)O
outcome (TestedRange_microM: 30-200): inactive; partial

CCN=C1C=CC(=C(c2ccc(N(CC)CC)cc2)c2ccc(N(CC)CC)cc2)c2ccccc21
outcome: inactive; none

CCOC(=O)CCC(=O)OCC
outcome: inactive; none

CCC(CO)(CO)CO
outcome: inactive; none

C=CCCCCCCCCC=O
outcome: inactive; incomplete

CCCCCCC1CCC(=O)O1 (stereo not drawn)
outcome: inactive; none

CC(=O)CC(=O)N(C)C
outcome: inactive; none

Cc1cccc[n+]1[O-]
outcome: inactive; none

CCO[Si](CCCCl)(OCC)OCC
outcome: inactive; none

CC(C)CCCCCOC(=O)CS
outcome: inactive; none

CCOP(=S)(OCC)SCn1c(=O)oc2cc(Cl)ccc21
outcome: inactive; none

O=C1OC2(c3ccc(O)cc3Oc3cc(O)ccc32)c2ccccc21
outcome: inactive; none

Cc1cccc(C(=O)O)c1O
outcome: inactive; none

c1ccsc1
outcome: inactive; none

NCCCCCCNCCCCCCN
outcome: inactive; none

CCOC(=O)/C=C/c1ccc(/C=C/C(=O)OCC)cc1
outcome: inactive; none

Oc1ccc(C(c2ccc(O)cc2)(C(F)(F)F)C(F)(F)F)cc1
Potency (TestedRange_microM: 2.5-7.5): 1.9 µM

CC(C)CCC(C)Nc1ccc(NC(C)CCC(C)C)cc1 (stereo not drawn)
outcome: inactive; none

CCc1ccc(Br)cc1
outcome: inactive; incomplete

NC(=O)c1ccc(N)cc1
outcome: inactive; none

CO[Si](CCCCl)(OC)OC
outcome: inactive; none

C1CCC(NC2CCCCC2)CC1
outcome: inactive; none

N#CCCSCCC#N
outcome: inactive; none

O=C1OC2(c3ccc(O)cc3Oc3cc(O)ccc32)c2c(Cl)c(Cl)c(Cl)c(Cl)c21
outcome: inactive; none

— PubChem BioAssay AID1576 (EPA DSSTox, 2009)
